US20240150342A1, “ESTROGEN-RELATED RECEPTOR ALPHA MODULATORS” (LEAD PHARMA HOLDING B.V., priority 2019, published 2024)

Target: T1, ERRα ligand binding domain (ERRα-LBD) (Homo sapiens, UniProt P11474)
T1 construct: made in house; host or cells: E. coli
T1 sequence (P11474 193-421 limits assumed): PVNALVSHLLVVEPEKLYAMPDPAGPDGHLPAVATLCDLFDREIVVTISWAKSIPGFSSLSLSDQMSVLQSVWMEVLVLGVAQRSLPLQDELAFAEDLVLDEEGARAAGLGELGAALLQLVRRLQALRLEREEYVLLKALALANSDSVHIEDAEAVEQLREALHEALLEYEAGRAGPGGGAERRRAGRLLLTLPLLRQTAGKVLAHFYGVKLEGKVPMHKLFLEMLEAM
Test: ERRα AlphaScreen Assay
Type: biochemical
Settings: disruption of binding of ERRα-LBD protein to biotin-PGC1α-3 co-activator peptide; read-out: mean pIC50 (converted)
Description: This assay was based on the knowledge that nuclear receptors interact with cofactors in a ligand dependent matter. The sites of interaction have been mapped to LXXLL motifs that are present in the co-activator sequences. Short peptide sequences that contain the LXXLL motif mimic the behavior of full length co-activators.
The ERRα AlphaScreen Assay described here relies on the interaction of the co-activator peptide with purified bacterial- expressed ERRα ligand binding domain (ERRα-LBD); upon ligand binding, the ERRα protein can undergo a conformational change resulting in a loss of co-activator binding.
Compounds of the present invention were tested for their ability to disrupt binding of ERRα-LBD protein to co-activator peptide using AlphaScreen® Technology (Perkin Elmer). ERRα-LBD protein was expressed in E. coli as a 6×His Small Ubiquitin-like Modifier (SUMO) fusion. Bacterial expressed 6His-SUMO-ERRα-LBD protein was purified using affinity chromatography. All experiments were performed at room temperature in 384-well white non-binding plates (Greiner) using 50 mM Tris-HCl pH 7.5, 100 mM NaCl, 0.1% Pluronic F-127, 0.05% BSA and 5 mM TCEP as the buffer. Final DMSO concentration was 1% in the assay. Compounds were assayed in triplicate and: incubated with 0.81 nM ERRα-LBD protein and 10 μg/mL streptavidin donor beads and 10 μg/mL Ni-chelate acceptor beads for 1 hour at room temperature; followed by a 2-hour incubation with 15 nM biotin-PGC1α-3 peptide (QRRPCSELLKYLTTNDDPP) corresponding to amino acids 202 to 220.
The AlphaScreen signal was measured using an Envision Xcite plate reader (Perkin Elmer). Data was normalized, and curve fitting analysis was performed in GraphPad Prism 7 using a four-parameter dose-response fit.

| SMILES | IC50 [nM] |
| --- | --- |
| COc1cc(Oc2ccc(C3CC(=O)Nc4n[nH]cc43)cc2C)cc(C(F)(F)F)c1 (stereo not shown) [Example 56, 4-{4-[3-methoxy-5-(trifluoromethyl)phenoxy]-3-methylphenyl}-2H,4H,5H,6H,7H-pyrazolo[3,4-b]pyridin-6-one] | 10 to 100 |
| COc1cc(C2CC(=O)Nc3n[nH]cc32)ccc1Oc1ccc(C(F)(F)F)cc1C (stereo not shown) [Example 65, 4-{3-methoxy-4-[2-methyl-4-(trifluoromethyl)phenoxy]phenyl}-2H,4H,5H,6H,7H-pyrazolo[3,4-b]pyridin-6-one] | 100 to 1000 |
| COc1cc(Oc2ccc(C3CC(=O)Nc4n[nH]cc43)cc2)cc(C(F)(F)F)c1 (stereo not shown) [Example 54, 4-{4-[3-methoxy-5-(trifluoromethyl)phenoxy]phenyl}-2H,4H,5H,6H,7H-pyrazolo[3,4-b]pyridin-6-one] | 10 to 100 |
| COc1cc(Oc2ccc(C3CC(=O)Nc4n[nH]cc43)cc2F)cc(C(F)(F)F)c1 (stereo not shown) [Example 57, 4-{3-fluoro-4-[3-methoxy-5-(trifluoromethyl)phenoxy]phenyl}-2H,4H,5H,6H,7H-pyrazolo[3,4-b]pyridin-6-one] | 10 to 100 |
| COc1cc(C2CC(=O)Nc3n[nH]cc32)ccc1Oc1cccc(C(C)C)c1 (stereo not shown) [Example 30, 4-{3-methoxy-4-[3-(propan-2-yl)phenoxy]phenyl}-2H,4H,5H,6H,7H-pyrazolo[3,4-b]pyridin-6-one] | 10 to 100 |
| COc1cc(C2CC(=O)Nc3n[nH]cc32)ccc1Oc1cc(C)cc(C)c1 (single isomer, unassigned; (+)) [Example 81, (+)-4-[4-(3,5-dimethylphenoxy)-3-methoxyphenyl]-2H,4H,5H,6H,7H-pyrazolo[3,4-b]pyridin-6-one] | 100 to 1000 |
| COc1cc(C2CC(=O)Nc3n[nH]cc32)ccc1Oc1ccc2c(c1)CCC2 (stereo not shown) [Example 49, 4-[4-(2,3-dihydro-1H-inden-5-yloxy)-3-methoxyphenyl]-2H, 4H, 5H, 6H,7H-pyrazolo[3,4-b]pyridin-6-one] | 100 to 1000 |
| COc1cc(C2CC(=O)Nc3n[nH]cc32)ccc1Oc1cc(C)cc(C)c1 (stereo not shown) [Example 64, 4-[4-(3,5-dimethylphenoxy)-3-methoxyphenyl]-2H,4H,5H,6H,7H-pyrazolo[3,4-b]pyridin-6-one] | 10 to 100 |
| COc1cc(C2CC(=O)Nc3n[nH]cc32)ccc1Oc1ccc(C(F)(F)F)cc1 (stereo not shown) [Example 5, 4-{3-methoxy-4-[4-(trifluoromethyl)phenoxy]phenyl}-2H,4H,5H,6H,7H-pyrazolo[3,4-b]pyridin-6-one] | 100 to 1000 |
| O=C1CC(c2ccc(Oc3ccccc3S(F)(F)(F)(F)F)c(OC(F)(F)F)c2)c2c[nH]nc2N1 (stereo not shown) [Example 58, 4-{4-[2-(pentafluoro-λ^6-sulfanyl)phenoxy]-3-(trifluoromethoxy)phenyl}-2H,4H,5H,6H,7H-pyrazolo[3,4-b]pyridin-6-one] | 10 to 100 |
| COc1cc(C2CC(=O)Nc3n[nH]cc32)ccc1Oc1cccc(C(C)(C)C)c1 (stereo not shown) [Example 15, 4-[4-(3-tert-butylphenoxy)-3-methoxyphenyl]-2H,4H,5H,6H,7H-pyrazolo[3,4-b]pyridin-6-one] | 10 to 100 |
| COC(=O)C1C(=O)Nc2n[nH]cc2C1c1ccc(Oc2cc(C(F)(F)F)cc(C(F)(F)F)c2)c(OC)c1 (stereo not shown) [Example 72, methyl 4-{4-[3,5-bis(trifluoromethyl)phenoxy]-3-methoxyphenyl}-6-oxo-2H,4H,5H,6H,7H-pyrazolo[3,4-b]pyridine-5-carboxylate] | 100 to 1000 |
| COc1cc(C2CC(=O)Nc3n[nH]cc32)ccc1Oc1cc(C)cc(C)c1 (single isomer, unassigned; (-)) [Example 82, (−)-4-[4-(3,5-dimethylphenoxy)-3-methoxyphenyl]-2H,4H,5H,6H,7H-pyrazolo[3,4-b]pyridin-6-one] | 10 to 100 |
| COc1cc(C2CC(=O)Nc3n[nH]cc32)ccc1Oc1cc(C(C)(C)C)cc(C(C)(C)C)c1 (stereo not shown) [Example 44, 4-[4-(3,5-di-tert-butylphenoxy)-3-methoxyphenyl]-2H,4H,5H,6H,7H-pyrazolo[3,4-b]pyridin-6-one] | 10 to 100 |
| COc1cc(C2CC(=O)Nc3n[nH]cc32)ccc1Oc1cccc(C(F)(F)F)c1 (stereo not shown) [Example 6, 4-{3-methoxy-4-[3-(trifluoromethyl)phenoxy]phenyl}-2H,4H,5H,6H,7H-pyrazolo[3,4-b]pyridin-6-one] | 100 to 1000 |
| COc1cc(C2CC(=O)Nc3c[nH]cc32)ccc1Oc1cc(C(F)(F)F)cc(C(F)(F)F)c1 (stereo not shown) [Example 76, 4-{4-[3,5-bis(trifluoromethyl)phenoxy]-3-methoxyphenyl},2H,3H,4H,6H-pyrrolo[3,4-b]pyridin-2-one] | 10 to 100 |
| O=C1CC(c2ccc(Oc3ccccc3C(F)(F)F)c(OC(F)(F)F)c2)c2c[nH]nc2N1 (stereo not shown) [Example 60, 4-[3-(trifluoromethoxy)-4-[2-(trifluoromethyl)phenoxy]phenyl]-2H,4H,5H,6H,7H-pyrazolo[3,4-b]pyridin-6-one] | 100 to 1000 |
| Cc1cc(C2CC(=O)Nc3n[nH]cc32)ccc1Oc1ccc(C#N)cc1C(C)(C)C (stereo not shown) [Example 55, 3-tert-butyl-4-(2-methyl-4-{6-oxo-2H,4H,5H,6H,7H-pyrazolo[3,4-b]pyridin-4-yl}phenoxy)benzonitrile] | 10 to 100 |
| CC(C)(C)c1cc(C#N)ccc1Oc1ccc(C2CC(=O)Nc3n[nH]cc32)cc1 (stereo not shown) [Example 53, 3-tert-butyl-4-(4-{6-oxo-2H,4H,5H,6H,7H-pyrazolo[3,4-b]pyridin-4-yl}phenoxy)benzonitrile] | 10 to 100 |

Further lines, results first:

| IC50 [nM] | SMILES |
| --- | --- |
| 100 to 1000 | COc1cc(C2CC(=O)Nc3n[nH]cc32)ccc1Oc1ccccc1C1CCCC1 (stereo not shown) [Example 25, 4-[4-(2-cyclopentylphenoxy)-3-methoxyphenyl]-2H,4H,5H,6H,7H-pyrazolo[3,4-b]pyridin-6-one] |
| 100 to 1000 | COc1cc(C2CC(=O)Nc3n[nH]cc32)ccc1Oc1ccccc1-c1ccccc1 (stereo not shown) [Example 24, 4-[3-methoxy-4-(2-phenylphenoxy)phenyl]-2H,4H,5H,6H,7H-pyrazolo[3,4-b]pyridin-6-one] |
| 100 to 1000 | COc1cc(C2CC(=O)Nc3n[nH]cc32)ccc1Oc1ccccc1Cc1ccccc1 (stereo not shown) [Example 26, 4-[4-(2-benzylphenoxy)-3-methoxyphenyl]-2H,4H,5H,6H,7H-pyrazolo[3,4-b]pyridin-6-one] |
| 10 to 100 | COc1cc(C2CC(=O)Nc3n[nH]cc32)ccc1Oc1ccc(C#N)c2ccccc12 (stereo not shown) [Example 46, 4-(2-methoxy-4-{6-oxo-2H,4H,5H,6H,7H-pyrazolo[3,4-b]pyridin-4-yl}phenoxy)naphthalene-1-carbonitrile] |
| 100 to 1000 | CCCc1ccccc1Oc1ccc(C2CC(=O)Nc3n[nH]cc32)cc1OC (stereo not shown) [Example 22, 4-[3-methoxy-4-(2-propylphenoxy)phenyl]-2H,4H,5H,6H,7H-pyrazolo[3,4-b]pyridin-6-one] |
| 10 to 100 | COc1cc(C2CC(=O)Nc3n[nH]cc32)ccc1Oc1cccc2c1OC(C)(C)C2 (stereo not shown) [Example 48, 4-{4-[(2,2-dimethyl-2,3-dihydro-1-benzofuran-7-yl)oxy]-3-methoxyphenyl}-2H,4H,5H,6H,7H-pyrazolo[3,4-b]pyridin-6-one] |
| 100 to 1000 | COc1cc(C2CC(=O)Nc3n[nH]cc32)ccc1Oc1ccccc1C(F)(F)F (stereo not shown) [Example 4, 4-{3-methoxy-4-[2-(trifluoromethyl)phenoxy]phenyl}-2H,4H,5H,6H,7H-pyrazolo[3,4-b]pyridin-6-one] |
| 10 to 100 | COc1cc(C2CC(=O)Nc3n[nH]cc32)ccc1Oc1cccc2c1CCC2 (stereo not shown) [Example 47, 4-[4-(2,3-dihydro-1H-inden-4-yloxy)-3-methoxyphenyl]-2H,4H,5H,6H,7H-pyrazolo[3,4-b]pyridin-6-one] |
| ≤ 10 | COC(=O)c1ccc(Oc2ccc(C3CC(=O)Nc4n[nH]cc43)cc2OC)c2ccccc12 (stereo not shown) [Example 36, methyl 4-(2-methoxy-4-{6-oxo-2H,4H,5H,6H,7H-pyrazolo[3,4-b]pyridin-4-yl}phenoxy)naphthalene-1-carboxylate] |
| 100 to 1000 | COc1cc(C2CC(=O)Nc3n[nH]cc32)ccc1Oc1ccc(C)cc1C (stereo not shown) [Example 66, 4-[4-(2,4-dimethylphenoxy)-3-methoxyphenyl]-2H,4H,5H,6H,7H-pyrazolo[3,4-b]pyridin-6-one] |
| 100 to 1000 | COc1cc(C2CC(=O)Nc3n[nH]cc32)ccc1Oc1cccc(C)c1 (stereo not shown) [Example 1, 4-[3-methoxy-4-(3-methylphenoxy)phenyl]-2H,4H,5H,6H, 7H-pyrazolo[3,4-b]pyridin-6-one] |
| 100 to 1000 | CCc1cccc(Oc2ccc(C3CC(=O)Nc4n[nH]cc43)cc2OC)c1 (stereo not shown) [Example 21, 4-[4-(3-ethylphenoxy)-3-methoxyphenyl]-2H,4H,5H,6H,7H-pyrazolo[3,4-b]pyridin-6-one] |
